# Source: publication PMC11240139, “Exploring the antitumor potential of novel quinoline derivatives via tubulin polymerization inhibition in breast cancer; design, synthesis and molecular docking” (RSC Advances, 2024)
# Assays:
# Assay in all cases: NCI-60 SRB cytotoxicity screen
# Type in all cases: cell-based
# SW-620 (colon cancer) = system: SW-620 (colon cancer)
# [1] = system: NCI/ADR-RES (ovarian cancer)
# M14 (melanoma) = system: M14 (melanoma)
# [2] = system: MDA-MB-468 (breast cancer)
# Procedure, shortened: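 NCI-60 single-dose (10^−5 M) screen in MDA-MB-468 with SRB protein-stain read-out after 48 h exposure; cells TCA-fixed and absorbance read at 540 nm. Reported as GI%, with compounds meeting NCI activity criteria then run at five doses (0.01–100 μM).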
# KM12 (colon cancer) = system: KM12 (colon cancer)
# CAKI-1 (renal cancer) = system: CAKI-1 (renal cancer)
# A498 (renal cancer) = system: A498 (renal cancer)
# [3] = system: NCI-H460 (non-small cell lung cancer)
# SN12C (renal cancer) = system: SN12C (renal cancer)
# MCF7 (breast cancer) = system: MCF7 (breast cancer)
# SF-539 (CNS cancer) = system: SF-539 (CNS cancer)
# TK-10 (renal cancer) = system: TK-10 (renal cancer)
# ACHN (renal cancer) = system: ACHN (renal cancer)
# HT29 (colon cancer) = system: HT29 (colon cancer)
# SK-MEL-5 (melanoma) = system: SK-MEL-5 (melanoma)
# [4] = system: NCI-H23 (non-small cell lung cancer)
# MDA-MB-435 (melanoma) = system: MDA-MB-435 (melanoma)
# IGROV1 (ovarian cancer) = system: IGROV1 (ovarian cancer)
# 786-0 (renal cancer) = system: 786-0 (renal cancer)
# BT-549 (breast cancer) = system: BT-549 (breast cancer)
# SR (leukemia) = system: SR (leukemia)
# LOX IMVI (melanoma) = system: LOX IMVI (melanoma)
# MALME-3M (melanoma) = system: MALME-3M (melanoma)
# SNB-19 (CNS cancer) = system: SNB-19 (CNS cancer)
# MOLT-4 (leukemia) = system: MOLT-4 (leukemia)
# SK-MEL-28 (melanoma) = system: SK-MEL-28 (melanoma)
# [5] = system: NCI-H522 (non-small cell lung cancer)
# [6] = Homo sapiens, SW-620, five-dose assay
# [7] = Homo sapiens, five-dose assay, read-out: LC50 (the source's name)
# [8] = Homo sapiens, single dose 10 μM, read-out: growth inhibition (GI%)
# [9] = Homo sapiens, M14, five-dose assay
# [10] = Homo sapiens, MDA-MB-468, five-dose assay
# [11] = Homo sapiens, A498, five-dose assay
# [12] = Homo sapiens, NCI-H460, five-dose assay
# [13] = Homo sapiens, SF-539, five-dose assay
# [14] = Homo sapiens, SK-MEL-5, five-dose assay
# [15] = Homo sapiens, NCI-H23, five-dose assay
# [16] = Homo sapiens, BT-549, five-dose assay
# [17] = Homo sapiens, SNB-19, five-dose assay
# [18] = Homo sapiens, SK-MEL-28, five-dose assay
# [19] = Homo sapiens, NCI-H522, five-dose assay
structure (smiles),measurement,setting,value
"CCc1cccc2cc(-c3cc(-c4cc(OC)c(OC)c(OC)c4)[nH]c(=O)c3C#N)c(Cl)nc12 [Compound 4c, 4-(2-Chloro-8-ethylquinolin-3-yl)-2-oxo-6-(3,4,5-trimethoxyphenyl)-1,2-dihydropyridine-3-carbonitrile]",GI50,SW-620 (colon cancer); [6],27.5 µM
same,"LC50 (lethal concentration, 50% net cell kill)",SW-620 (colon cancer); [6],> 100 µM
same,inhibition at 10 µM,"SW-620 (colon cancer); Homo sapiens, SW-620, single dose 10 μM, read-out: growth inhibition (GI%)",17.4%
same,TGI,"SW-620 (colon cancer); SW-620, five-dose assay",>100 µM
same,GI50,"[1]; Homo sapiens, five-dose assay",44.9 µM
same,CC50,[1]; [7],> 100 µM
same,inhibition at 10 µM,[1]; [8],59.9%
same,TGI,[1]; five-dose assay,>100 µM
same,GI50,M14 (melanoma); [9],29.7 µM
same,LC50,M14 (melanoma); [9],> 100 µM
same,inhibition at 10 µM,"M14 (melanoma); Homo sapiens, M14, single dose 10 μM, read-out: growth inhibition (GI%)",42.8%
same,TGI,"M14 (melanoma); M14, five-dose assay",>100 µM
same,GI50,[2]; [10],12.7 µM
same,LC50 (concentration killing 50% of cells),[2]; [10],> 100 µM
same,inhibition at 10 µM,"[2]; Homo sapiens, MDA-MB-468, single dose 10 μM, read-out: growth inhibition (GI%)",51.9%
same,TGI,"[2]; MDA-MB-468, five-dose assay",61.60 µM
same,GI50,"KM12 (colon cancer); Homo sapiens, KM12, five-dose assay",33.6 µM
same,CC50,"KM12 (colon cancer); Homo sapiens, KM12, five-dose assay, read-out: LC50 (the source's name)",> 100 µM
same,inhibition at 10 µM,"KM12 (colon cancer); Homo sapiens, KM12, single dose 10 μM, read-out: growth inhibition (GI%)",55.1%
same,TGI,"KM12 (colon cancer); KM12, five-dose assay",>100 µM
same,TGI,"CAKI-1 (renal cancer); CAKI-1, five-dose assay",22.90 µM
same,GI50,"CAKI-1 (renal cancer); Homo sapiens, CAKI-1, five-dose assay",10.7 µM
same,CC50,"CAKI-1 (renal cancer); Homo sapiens, CAKI-1, five-dose assay, read-out: LC50 (the source's name)",49.2 µM
same,inhibition at 10 µM,"CAKI-1 (renal cancer); Homo sapiens, CAKI-1, single dose 10 μM, read-out: growth inhibition (GI%)",95.1%
same,TGI,"A498 (renal cancer); A498, five-dose assay",45.20 µM
same,growth inhibition (GI%),"A498 (renal cancer); A498, single dose 10 μM",lethal effect
same,GI50,A498 (renal cancer); [11],15.8 µM
same,LC50 (concentration killing 50% of cells),A498 (renal cancer); [11],> 100 µM
same,inhibition at 10 µM,"A498 (renal cancer); Homo sapiens, A498, single dose 10 μM, read-out: growth inhibition (GI%)",> 100%
same,GI50,[3]; [12],16.1 µM
same,LC50 (50% lethal concentration),[3]; [12],> 100 µM
same,inhibition at 10 µM,"[3]; Homo sapiens, NCI-H460, single dose 10 μM, read-out: growth inhibition (GI%)",58.6%
same,TGI,"[3]; NCI-H460, five-dose assay",41.80 µM
same,GI50,"SN12C (renal cancer); Homo sapiens, five-dose assay",10.3 µM
same,LC50 (concentration killing 50% of cells),"SN12C (renal cancer); Homo sapiens, five-dose assay",61.8 µM
same,inhibition at 10 µM,SN12C (renal cancer); [8],> 100%
same,TGI,SN12C (renal cancer); five-dose assay,25.20 µM
same,growth inhibition (GI%),SN12C (renal cancer); single dose 10 μM,lethal effect
same,GI50,"MCF7 (breast cancer); Homo sapiens, MCF7, five-dose assay",24 µM
same,CC50,"MCF7 (breast cancer); Homo sapiens, MCF7, five-dose assay, read-out: LC50 (the source's name)",> 100 µM
same,inhibition at 10 µM,"MCF7 (breast cancer); Homo sapiens, MCF7, single dose 10 μM, read-out: growth inhibition (GI%)",54.8%
same,TGI,"MCF7 (breast cancer); MCF7, five-dose assay",>100 µM
same,GI50,SF-539 (CNS cancer); [13],12 µM
same,LC50 (50% lethal concentration),SF-539 (CNS cancer); [13],51.3 µM
same,inhibition at 10 µM,"SF-539 (CNS cancer); Homo sapiens, SF-539, single dose 10 μM, read-out: growth inhibition (GI%)",> 100%
same,TGI,"SF-539 (CNS cancer); SF-539, five-dose assay",24.80 µM
same,growth inhibition (GI%),"SF-539 (CNS cancer); SF-539, single dose 10 μM",lethal effect
same,GI50,"TK-10 (renal cancer); Homo sapiens, TK-10, five-dose assay",17.5 µM
same,CC50,"TK-10 (renal cancer); Homo sapiens, TK-10, five-dose assay, read-out: LC50 (the source's name)",> 100 µM
same,inhibition at 10 µM,"TK-10 (renal cancer); Homo sapiens, TK-10, single dose 10 μM, read-out: growth inhibition (GI%)",> 100%
same,TGI,"TK-10 (renal cancer); TK-10, five-dose assay",34.50 µM
same,growth inhibition (GI%),"TK-10 (renal cancer); TK-10, single dose 10 μM",lethal effect
same,GI50,"ACHN (renal cancer); Homo sapiens, five-dose assay",15.6 µM
same,LC50,"ACHN (renal cancer); Homo sapiens, five-dose assay",61.8 µM
same,inhibition at 10 µM,ACHN (renal cancer); [8],75.7%
same,TGI,ACHN (renal cancer); five-dose assay,31.00 µM
same,TGI,"HT29 (colon cancer); HT29, five-dose assay",>100 µM
same,GI50,"HT29 (colon cancer); Homo sapiens, HT-29, HT29, five-dose assay",32.1 µM
same,CC50,"HT29 (colon cancer); Homo sapiens, HT-29, HT29, five-dose assay, read-out: LC50 (the source's name)",> 100 µM
same,inhibition at 10 µM,"HT29 (colon cancer); Homo sapiens, HT-29, HT29, single dose 10 μM, read-out: growth inhibition (GI%)",< 10%
same,GI50,SK-MEL-5 (melanoma); [14],17.5 µM
same,LC50,SK-MEL-5 (melanoma); [14],> 100 µM
same,inhibition at 10 µM,"SK-MEL-5 (melanoma); Homo sapiens, SK-MEL-5, single dose 10 μM, read-out: growth inhibition (GI%)",78.6%
same,TGI,"SK-MEL-5 (melanoma); SK-MEL-5, five-dose assay",90.20 µM
same,GI50,[4]; [15],3.2 µM
same,LC50 (concentration killing 50% of cells),[4]; [15],> 100 µM
same,inhibition at 10 µM,"[4]; Homo sapiens, NCI-H23, single dose 10 μM, read-out: growth inhibition (GI%)",68.6%
same,TGI,"[4]; NCI-H23, five-dose assay",>100 µM
same,GI50,"MDA-MB-435 (melanoma); Homo sapiens, MDA-MB-435",32.6 µM
same,inhibition at 10 µM,"MDA-MB-435 (melanoma); Homo sapiens, MDA-MB-435, read-out: growth inhibition (GI%)",56.5%
same,"LC50 (lethal concentration, 50% net cell kill)","MDA-MB-435 (melanoma); Homo sapiens, MDA-MB-435, five-dose assay",> 100 µM
same,TGI,"MDA-MB-435 (melanoma); MDA-MB-435, five-dose assay",>100 µM
same,GI50,"IGROV1 (ovarian cancer); Homo sapiens, IGROV-1, IGROV1, five-dose assay",12.2 µM
same,CC50,"IGROV1 (ovarian cancer); Homo sapiens, IGROV-1, IGROV1, five-dose assay, read-out: LC50 (the source's name)",> 100 µM
same,inhibition at 10 µM,"IGROV1 (ovarian cancer); Homo sapiens, IGROV-1, IGROV1, single dose 10 μM, read-out: growth inhibition (GI%)",66.3%
same,TGI,"IGROV1 (ovarian cancer); IGROV1, five-dose assay",46.30 µM
same,TGI,"786-0 (renal cancer); 786-0, five-dose assay",26.70 µM
same,growth inhibition (GI%),"786-0 (renal cancer); 786-0, single dose 10 μM",lethal effect
same,GI50,"786-0 (renal cancer); Homo sapiens, 786-0, five-dose assay",11.7 µM
same,CC50,"786-0 (renal cancer); Homo sapiens, 786-0, five-dose assay, read-out: LC50 (the source's name)",61.1 µM
same,inhibition at 10 µM,"786-0 (renal cancer); Homo sapiens, 786-0, single dose 10 μM, read-out: growth inhibition (GI%)",> 100%
same,TGI,"BT-549 (breast cancer); BT-549, five-dose assay",28.10 µM
same,GI50,BT-549 (breast cancer); [16],4.11 µM
same,LC50,BT-549 (breast cancer); [16],> 100 µM
same,inhibition at 10 µM,"BT-549 (breast cancer); Homo sapiens, BT-549, single dose 10 μM, read-out: growth inhibition (GI%)",57.5%
same,GI50,SR (leukemia); five-dose assay,5.7 µM
same,LC50,SR (leukemia); five-dose assay,> 100 µM
same,TGI,SR (leukemia); five-dose assay,>100 µM
same,inhibition at 10 µM,"SR (leukemia); single dose 10 μM, read-out: growth inhibition (GI%)",77.3%
same,GI50,"LOX IMVI (melanoma); Homo sapiens, five-dose assay",13.5 µM
same,CC50,LOX IMVI (melanoma); [7],81.3 µM
same,inhibition at 10 µM,LOX IMVI (melanoma); [8],91.6%
same,TGI,LOX IMVI (melanoma); five-dose assay,33.20 µM
same,GI50,"MALME-3M (melanoma); Homo sapiens, five-dose assay",10.1 µM
same,CC50,MALME-3M (melanoma); [7],> 100 µM
same,inhibition at 10 µM,MALME-3M (melanoma); [8],89.4%
same,TGI,MALME-3M (melanoma); five-dose assay,40.00 µM
same,GI50,SNB-19 (CNS cancer); [17],9.25 µM
same,LC50 (50% lethal concentration),SNB-19 (CNS cancer); [17],> 100 µM
same,inhibition at 10 µM,"SNB-19 (CNS cancer); Homo sapiens, SNB-19, single dose 10 μM, read-out: growth inhibition (GI%)",89.6%
same,TGI,"SNB-19 (CNS cancer); SNB-19, five-dose assay",50.90 µM
same,GI50,"MOLT-4 (leukemia); Homo sapiens, MOLT-4, five-dose assay",8.17 µM
same,CC50,"MOLT-4 (leukemia); Homo sapiens, MOLT-4, five-dose assay, read-out: LC50 (the source's name)",> 100 µM
same,inhibition at 10 µM,"MOLT-4 (leukemia); Homo sapiens, MOLT-4, single dose 10 μM, read-out: growth inhibition (GI%)",76.4%
same,TGI,"MOLT-4 (leukemia); MOLT-4, five-dose assay",79.90 µM
same,GI50,SK-MEL-28 (melanoma); [18],21.1 µM
same,LC50 (concentration causing 50% net cell kill),SK-MEL-28 (melanoma); [18],> 100 µM
same,inhibition at 10 µM,"SK-MEL-28 (melanoma); Homo sapiens, SK-MEL-28, single dose 10 μM, read-out: growth inhibition (GI%)",68.9%
same,TGI,"SK-MEL-28 (melanoma); SK-MEL-28, five-dose assay",>100 µM
same,GI50,[5]; [19],19.1 µM
same,LC50 (concentration causing 50% net cell kill),[5]; [19],> 100 µM
same,inhibition at 10 µM,"[5]; Homo sapiens, NCI-H522, single dose 10 μM, read-out: growth inhibition (GI%)",> 100%
same,TGI,"[5]; NCI-H522, five-dose assay",>100 µM
same,growth inhibition (GI%),"[5]; NCI-H522, single dose 10 μM",lethal effect
